Assay results taken from article PMC9369442, “Synthetic Peucedanocoumarin IV Prevents α-Synuclein Neurotoxicity in an Animal Model of Parkinson’s Disease” (International Journal of Molecular Sciences, 2022).

Columns and labels:
[1] = test system: α-synuclein PFF-treated mice cortical neurons; test: PFF-induced neurotoxicity in cortical neurons, CCK-8 assay; assay type: cell-based, mouse; settings: CCK-8, 14 days PFF, 1 μM every 2 days
Protocol: Figure 2 PCiv prevents α-synuclein aggregation in vitro and in cultured neurons with PFF treatment. (A) Representative Western blots showing the degree of recombinant α-synuclein (αSyn) aggregation in a test tube in the presence or absence of PCiv (100 μM) at the indicated incubation duration (phosphate-buffered saline [PBS], 37 °C for 3 or 5 days). Aggregation of α-synuclein was determined using α-synuclein antibody. (B) Quantification of the relative amount of α-synuclein aggregate in high molecular weight sizes in panel A (n = 3 per group). (C) Representative immunofluorescence of MAP2 and Lewy-like inclusion marker pS129-αSyn in mice cortical neurons treated with α-synuclein preformed fibril (PFF) (1 μg, for 14 days). […] (D) Quantification of pS129-αSyn immunofluorescence signal intensities in MAP2-positive cortical neurons in each experimental group (n = 15 cells from three separate experiments). (E) Cell viability assessment in the indicated experimental groups was monitored by CCK-8 assay (n = 3 per group). The data are expressed as means ± SEMs. * p < 0.05, ** p < 0.01, *** p < 0.001, and **** p < 0.0001, ANOVA test followed by Tukey’s post hoc analysis.
CD1 mice were purchased from Orient Co. for use in the mouse primary neuron culture. […] The optical value was read at 450 nm using a multi-detection microplate reader (Synergy, BioTek Instruments Inc., Winooski, VT, USA).

[2] = test system: β23 (HA-tagged) in SH-SY5Y cells; test: β23 clearance by Western blot and immunofluorescence of HA-tagged β23; assay type: cell-based, Human; settings: 1 μM; for HA-β23 immunofluorescence signal in mCherry-positive transfected cells: 37 h
Protocol: Figure 1 Peucedanocoumarin IV (PCiv) inhibits β23 aggregations and cytotoxicity in SH-SY5Y cells. (A) Scheme showing the detailed experimental steps in the organic synthesis of racemic PCiv and racemic PCiii (rac-PCiii, and rac-PCiv). Both PCiii and PCiv used in this study are racemic forms. (B) Trypan blue exclusion cell viability assessment in SH-SY5Y cells with Tet-Off-induced β23 expressions. β23 was expressed for 24 h using the Tet-off system. Further expression of β23 was halted by doxycycline (Dox) treatment with simultaneous treatment of the PCiii, PCiv, or their synthetic intermediate, trans-khellatone (t-khellatone, 1 μM 24 h). Cell viability was assessed 24 h after doxycycline treatment (n = 5 per group). (C) Synthetic PCiv’s protective effect on Tet-Off-expressed β23 toxicity in SH-SY5Y cells compared with peucedanocoumarin III (PCiii) determined by trypan blue exclusion assay. (D) The degradation of β23 monitored by Western blot at 37 h after doxycycline (200 ng/mL) treatment. The representative Western blot image of HA (β23) in SH-SY5Y cells treated with synthetic PCiii, synthetic PCiv (1 μM, 37 h), or DMSO as a vehicle. (E) Quantification of HA (β23) expression in SH-SY5Y cells from the indicated experimental groups in panel D (n = 3 experiments per group). (F) Representative immunofluorescence of steady state HA (β23) expression in SH-SY5Y cells expressing Tet-Off regulatable reporter mCherry and HA-tagged β23. […] (G) Quantification of HA (β23) immunofluorescence signal in mCherry positive SH-SY5Y cells in each experimental group (n = 32 cells from three separate experiments per group). The data are expressed as means ± SEMs. * p < 0.05, ** p < 0.01, *** p < 0.001, and **** p < 0.0001, ANOVA test followed by Tukey’s post hoc analysis. […]
Lysis buffer was added to the SH-SY5Y cells washed with ice-cold PBS (1% Nonidet P40 in PBS, pH 7.4) that was supplemented with protease/phosphatase inhibitors. […] The supernatants were quantified through BCA protein assessment. […] Next, band quantification was performed using ImageJ software. […]

SMILES | PFF-induced neurotoxicity (neuron viability) [1] | HA-β23 immunofluorescence signal in mCherry-positive transfected cells [2] | steady-state β23 expression levels (Western blot) ([2]; 37 h after doxycycline)
C/C=C(\C)C(=O)O[C@@H]1c2c(ccc3ccc(=O)oc23)OC(C)(C)[C@H]1OC(C)=O (relative stereo) [PCiii, peucedanocoumarin III] | prevented | markedly reduced | –
C/C=C(\C)C(=O)O[C@H]1[C@H](OC(C)=O)c2c(ccc3ccc(=O)oc23)OC1(C)C (relative stereo) [PCiv, trans-4′-acetyl-3′-tigloylkhellactone] | prevented | markedly reduced | markedly reduced
